Patent publication US20130236473A1, “THERAPEUTIC AGENTS AND PROPHYLACTIC AGENTS FOR SYMPTOMS ACCOMPANYING AUTOIMMUNE DISEASES, INFLAMMATORY DISEASES, ALLERGY DISEASES AND ORGAN TRANSPLANTS” (OSAKA UNIVERSITY, priority 2010, published 2013)

Tests used:
IL-6 amplifier [1] = assay: Reference Example 5: mIL-6 production on IL-6 amplifier activation with epiregulin in BC-1 cells (ELISA); format: cell-based; details: 24 hours, 100 ng/ml mouse epiregulin protein, conditions (e) to (h), inhibitor 0, 0.1, 1 or 10 micromoles/L
Experimental: After the culture, the production amount of mouse IL-6 (mIL-6) protein in each of the clones, i.e., the amount of mIL-6 protein in the medium solution, was quantified by an ELISA method. In the ELISA method, anti-mIL-6 antibody and an ELISA kit, both manufactured by eBioscience, Inc., were used. In addition, a cell proliferation assay was performed for each of the clones, using a TetraColor ONE kit (Seikagaku Corporation). […]
After the culture, the production amount of mouse IL-6 protein under each condition was quantified by an ELISA method in the same manner as in Reference Example 1. […]

IL-6 amplifier [2] = assay: Example 1: mIL-6 protein production on IL-6 amplifier activation in BC-1 cells or MEFs (ELISA); format: cell-based, mouse; details: 30 min pretreatment with 0.1, 1 or 10 micromoles/L ErbB1 inhibitor, then conditions (a) to (d), 24 hours, 10% FBS
Experimental: 2×10^5 mouse BC-1 cells were cultured in an RPMI 1640 medium for 24 hours under each of the following conditions: • (a) in the presence of 10% FBS, • (b) with the addition of 50 ng/ml of hIL-6 protein and 50 ng/ml of hIL-6R protein (hereinafter referred to as “hIL-6/6R proteins”) and in the presence of 10% FBS, • (c) with the addition of 50 ng/ml of mIL-17A protein and in the presence of 10% FBS, • (d) with the addition of hIL-6/6R proteins at 50 ng/ml and mIL-17A protein at 50 ng/ml and in the presence of 10% FBS, • (e) in the absence of FBS, • (f) with the addition of hIL-6/6R proteins each at 50 ng/ml and in the absence of FBS, • (g) with the addition of 50 ng/ml of mIL-17A protein and in the absence of FBS, or • (h) with the addition of hIL-6/6R proteins each at 50 ng/ml and mIL-17A protein at 50 ng/ml and in the absence of FBS.
2×10^5 mouse BC-1 cells or 2×10^5 mouse embryonic fibroblasts (MEFs) were cultured for 30 minutes in an RPMI 1640 medium, in the presence of 0.1, 1, or 10 micromoles/L of PD153065; or in the presence of 0.1, 1, or 10 micromoles/L of PD168393 (Calbiochem). […]
After the culture, the production amount of mouse IL-6 protein under each condition was quantified by an ELISA method. […]

IL-6 amplifier [3] = assay: Reference Example 10: hIL-6 gene expression in human synovial fibroblasts with epiregulin (RT-PCR); format: cell-based; details: 3 hours, 100 ng/ml epiregulin protein, inhibitor 0 or 10 micromoles/L
Experimental: In addition, the expression amounts of mIL-6 gene were quantified by a real-time RT-PCR method. The real-time RT-PCR method was performed using a GeneAmp 5700 sequence detection system (Applied Biosystems) and a SYBER green PCR Master Mix (Sigma-Aldrich Co. LLC.). The conditions of the PCR amplification were as follows: the amplification was performed in 40 cycles, each cycle consisting of thermal denaturation (94° C., 15 seconds), annealing (60° C., 30 seconds), and extension reaction (72° C., 30 seconds)). […] After the culture, the expression amount of human IL-6 gene under each condition was quantified by a RT-PCR method in the same manner as in Reference Example 9.

[4] = system: cytokine-induced arthritis mice; assay: Clinical score of arthritis in cytokine-induced arthritis mice (F759 mice); format: in vivo, mouse
Experimental: On each of days 0, 1, and 2, 100 ng of mIL-6 protein and 100 ng of mIL-17A protein, as cytokines, were injected into the malleolus joints of 8-week-old F759 mice to induce arthritis. At the same time, on each of days 0 to 23, 10 micrograms of PD153035 dissolved in DMSO was injected into the malleolus joints (n=6). Mice injected with the cytokines and DMSO only (n=6), and mice injected with DMSO only (n=6) served as control groups.
From day 0 to day 23, symptom of arthritis was evaluated by clinical scores. Specific examples of the evaluation are described below and in FIG. 2. Specifically, for example, the clinical score is 0 if the movable range of malleolus joint is a healthy state as shown in FIG. 14(A), and the clinical score is 3 if severe arthritis develops and the movable range of malleolus joint is 60° smaller than the healthy case as shown in FIG. 14(B). Further, the clinical score is 1 if the movable range of malleolus joint is 20° smaller than the healthy case, and the clinical score is 2 if the movable range of malleolus joint is 40° smaller than the healthy case.
F759 mice used as cytokine-induced arthritis mice are genetically modified mice in which F759 mutation (in which tyrosine residue 759 (Y) is replaced by phenylalanine (F) in gp130 protein, a receptor of IL-6 protein, etc.) is introduced (Non-Patent Literature 3); and in F759 mice, dysregulation of IL-6 amplifier is observed (Non-Patent Literature 1). Dysregulation of IL-6 amplifier observed in F759 mice is believed to be caused as follows: SOCS3 protein signal transduction, which is dependent on the phosphorylation status of tyrosine residue 759 (Y759) of gp130 protein, is inhibited by F759 mutation, thereby decreasing the action of suppressing STAT3 signals via SOCS3 protein to enhance STAT3-dependent signals. It is known that autoimmune arthritis develops in almost 100% of the mice one to one-and-a-half years after birth. It is also known that arthritis develops earlier by injecting inflammatory cytokines, such as IL-6 and IL-17, into joints (e.g., malleolus joints) of the mice. […]

[5] = system: experimental autoimmune encephalomyelitis (EAE) mice; assay: Clinical score in experimental autoimmune encephalomyelitis (EAE) mice; format: in vivo, mouse; details: 5 mg intraperitoneal on each of days 0 to 6, scored day 0 to 13, control DMSO
Experimental: EAE mice were made according to the method described in Non-Patent Literature 1.
200 micrograms of MOG (myelin oligodendrocyte glycoprotein) peptide (peptide comprising residues 33 to 55 of the full-length amino acid sequence of mouse MOG protein (amino acid sequence shown in SEQ ID NO: 9)) dissolved in Complete Freund's adjuvant (CFA) was administered to the tail of a 7- to 8-week-old C57/B6-strain mouse by subcutaneous injection, followed by intravenous injection of 200 nanograms of pertussis toxin (PTx).
A MOG-specific CDCT cell group was obtained according to a ordinary method from the spleen removed after feeding the above mouse for 10 days. 2×10^5 cells of the MOG-specific CDCT cells were cultured with 5×10^5 C57/B6-strain mouse bone marrow-derived dendritic cells (BMDCs) pulsed with MOG peptide in an RPMI 1640 medium containing 10% FBS in the presence of 20 ng/ml of recombinant IL-23 (rIL-23) protein in an incubator at a temperature of 37° C. to obtain a cell group containing pathogenic Th17 cells. […]
From day 0 to day 12, the clinical score in each mouse was evaluated according to the method described in Non-Patent Literature 1. […]
From day 0 to day 13, the clinical score in each mouse was evaluated according to the method described in Non-Patent Literature 1.

IL-6 amplifier [6] = assay: Reference Example 3: effect of growth factors on mIL-6 protein production in BC-1 cells (ELISA); format: cell-based, mouse; details: 24 hours, hIL-6/6R and mIL-17A each 50 ng/ml, growth factor added, versus none added
Experimental: 2×10^5 mouse BC-1 cells were cultured for 24 hours in an RPMI 1640 medium containing hIL-6/6R proteins each at 50 ng/ml and mIL-17A protein at 50 ng/ml under the condition in which 100 ng/ml of mouse EGF protein (R&D Systems, Inc.), 100 ng/ml of human HB-EGF protein (R&D Systems, Inc.), 0.1, 1, 10, or 100 ng/ml of mouse epiregulin protein (R&D Systems, Inc.), 50 ng/ml of mouse VEGF protein (R&D Systems, Inc.), 50 ng/ml of mouse FGF7 protein (R&D Systems, Inc.), or 300 ng/ml of mPDGF-CC protein (R&D Systems, Inc.) was separately added. Mouse BC-1 cells cultured under the condition in which only hIL-6/6R proteins and mIL-17A protein were added served as a control group.
After the culture, the production amount of mIL-6 protein under each condition was quantified by an ELISA method in the same manner as in Reference Example 1. FIGS. 5 and 6 show the results.

[7] = mIL-6 + mIL-17A days 0, 1, 2, 10 micrograms into malleolus joints on each of days 0 to 23, scored day 0 to 23

Compound: COc1cc2ncnc(Nc3cccc(Br)c3)c2cc1OC [PD153035, 4-[(3-Bromophenyl)amino]-6,7-dimethoxyquinazoline]
- Increase in the amount of transcription of mIL-6 due to epiregulin protein (production amount of mouse IL-6 protein by ELISA) (IL-6 amplifier [1]): inhibited in a manner dependent on the addition amount
- increase in the expression amount of mIL-6 protein due to activation of IL-6 amplifier (IL-6 amplifier [2]): can be suppressed
- Increase in the amount of transcription of hIL-6 due to epiregulin protein (IL-6 amplifier [3]): inhibited in a manner dependent on the addition amount
- symptom of arthritis (clinical score) [4, 7]: symptom of cytokine-induced arthritis was alleviated, or worsening of symptom of cytokine-induced arthritis was suppressed

Compound: COc1cc2ncnc(Nc3ccc(F)c(Cl)c3)c2cc1OCCCN1CCOCC1 [gefitinib, N-(3-chloro-4-fluoro-phenyl)-7-methoxy-6-(3-morpholin-4-ylpropoxy) quinazolin-4-amine]
- symptom of experimental autoimmune encephalomyelitis (clinical score) [5]: symptom of experimental autoimmune encephalomyelitis was alleviated, or worsening of symptom of experimental autoimmune encephalomyelitis was suppressed
- symptom of arthritis (clinical score) [4, 7]: symptom of cytokine-induced arthritis was alleviated, or worsening of symptom of cytokine-induced arthritis was suppressed

Compound: EGF protein: mouse EGF protein (R&D Systems, Inc.), ligand of ErbB1 protein (NSYPGCPSSYDGYCLNGGVCMHIESLDSYTCNCVIGYSGDRCQTRDLRWWELR)
- production amount of mIL-6 protein (IL-6 amplifier [6]): significantly (p value <0.01) increased

Compound: C=CC(=O)Nc1ccc2ncnc(Nc3cccc(Br)c3)c2c1 [PD168393, 4-[(3-Bromophenyl)amino]-6-acrylamidoquinazoline]
- increase in the expression amount of mIL-6 protein due to activation of IL-6 amplifier (IL-6 amplifier [2]): can be suppressed
- symptom of arthritis (clinical score) ([4]; mIL-6 + mIL-17A days 0, 1, 2, 10 micrograms into malleolus joints on each of days 0 to 11, scored day 0 to 23): symptom of cytokine-induced arthritis was alleviated, or worsening of symptom of cytokine-induced arthritis was suppressed
